The structures appear in SMILES notation. A value given as a limit tells only on which side of the number the result lay.

What is called melting point is the temperature of the solid-liquid transition. With `COc1ccc(-c2nc(-c3ccc(O)c(O)c3)cs2)cc1OC.Cl` [Example 1, 2-(3,4-dimethoxyphenyl)-4-(3,4-dihydroxyphenyl) thiazole hydrochloride], the melting point is 146 to 148 °C.
The molecule `COc1ccc(-c2nc(-c3ccc4c(c3)CCC(=O)N4)co2)cc1OC` [Example 137, 2-(3,4-dimethoxyphenyl)-4-(3,4-dihydrocarbostyril-6-yl) oxazole] showed a melting point of 191 to 192 °C.
Next, `[O-][n+]1cccc(-c2nc(-c3ccccc3)cs2)c1` [Example 139, 3-(4-phenylthiazol-2-yl) pyridine-N-oxide]: 140 to 141 °C; `O=c1[nH]cccc1-c1nc(-c2ccccc2)cs1` [Example 140, 2-(2-oxopyridin-3-yl)4-phenylthiazole]: 206 to 207 °C (dec.).
The same measure for `COc1ccc(-c2nc(-c3ccc4c(c3)N(C)C(=O)CS4)cs2)cc1OC` [Example 143, 2-(3,4-dimethoxyphenyl)-4-(4-methyl-2H-1,4-benzothiazin-3(4H)-one-6-yl)thiazole]: 143.5 to 144 °C; for `COc1ccc(-c2nc(-c3ccc4c(c3)CCCN4C(=O)c3ccccc3)cs2)cc1OC` [Example 144, 2-(3,4-dimethoxyphenyl)-4-(1-benzoyl-1,2,3,4-tetrahydroquinolin-6-yl)thiazole]: 152.5 to 153.5 °C.
Next, `COc1ccc(-c2nc(-c3ccc4oc(=O)[nH]c4c3)cs2)cc1OC` [Example 145, 2-(3,4-dimethoxyphenyl)-4-(benzoxazol-2-on-5-yl) thiazole]: 271 to 272 °C.
Take `O=C1CCc2cc(-c3csc(-c4ccc(C(=O)O)cc4)n3)ccc2N1` [Example 147, 2-(4-carboxyphenyl)-4-(3,4-dihydrocarbostyril-6-yl)thiazole]: the melting point was at least 300 °C.
The same measure for `NC(=O)c1ccc(-c2nc(-c3ccc4c(c3)CCC(=O)N4)cs2)cc1` [Example 148, 2-(4-carbamoylphenyl)-4-(3,4-dihydrocarbostyril-6-yl)thiazole]: at least 300 °C; for `COc1cc(-c2nc(-c3ccc4c(c3)CCC(=O)N4)cs2)ccc1[S+](C)[O-]` (centres unmarked) [Example 149, 2-(3-methoxy-4-methylsulfinylphenyl)-4-(3,4-dihydrocarbostyril-6-yl)thiazole]: 264 to 265 °C.
Next, `COc1cc(-c2nc(-c3ccc4c(c3)CCC(=O)N4)cs2)ccc1S(C)(=O)=O` [Example 150, 2-(3-methoxy-4-methylsulfonylphenyl)-4-(3,4-dihydrocarbostyril-6-yl)thiazole]: 284 to 286 °C; `COc1ccc(C(O)c2nc(-c3ccc4[nH]c(=O)c(O)c(O)c4c3)cs2)cc1OC` (centres unmarked) [Example 151, 2-[1-(3,4-dimethoxyphenyl)-1-hydroxymethyl]-4-(3,4-dihydroxycarbostyril-6-yl)thiazole]: 188 to 189 °C; `COc1ccc(C(=O)c2nc(-c3ccc4[nH]c(=O)c(O)c(O)c4c3)cs2)cc1OC` [Example 152, 2-(3,4-dimethoxybenzoyl)-4-(3,4-dihydroxycarbostyril-6-yl) thiazole]: 249 to 251 °C.
The same measure for `CCOc1ccc(-c2nc(-c3ccc(O[C@@H]4O[C@H](CO)[C@@H](O)[C@H](O)[C@H]4O)cc3)cs2)cc1OCC` [Example 237, 4-[4-(β-D-glucopyranosyloxy)-phenyl]-2-(3,4-diethoxyphenyl)thiazole]: 138 to 140 °C; for `COc1ccc(-c2nc(-c3ccc(OS(=O)(=O)O)cc3)cs2)cc1OC` [Example 238, 4-(4-hydroxysulfonyloxyphenyl)-2-(3,4-dimethoxyphenyl)thiazole]: 248 to 249 °C.
Turning to `CCOc1ccc(-c2nc(-c3ccc(N4CCOCC4)c([N+](=O)[O-])c3)cs2)cc1OCC` [Example 242, 4-(4-morpholino-3-nitrophenyl)-2-(-3,4-diethoxyphenyl) thiazole], the melting point is 119 to 120 °C.
Next, `CCOc1ccc(C(=O)c2csc(-c3ccc(OCC)c(OCC)c3)n2)cc1OCC` [Example 246, 2-(3,4-diethoxyphenyl)-4-(3,4-diethoxybenzoyl)thiazole]: 128 to 129 °C; `CCOc1ccc(-c2nc(C=Cc3ccccc3)cs2)cc1OCC` [Example 247, 2-(3,4-diethoxyphenyl)-4-styrylthiazole]: 94 to 95 °C.
`C=CCc1cc(-c2csc(-c3ccc(OCC)c(OCC)c3)n2)cc(C(=O)OC)c1O` [Example 353, 2-(3,4-diethoxyphenyl)-4-(3-methoxycarbonyl-4-hydroxy-5-allylphenyl)thiazole] returned a melting point of 118 to 119 °C.
The same measure for `CCOc1ccc(-c2nc(-c3ccc(SC(=O)N(C)C)c(C(=O)OC)c3)cs2)cc1OCC` [Example 354, 2-(3,4-diethoxyphenyl)-4-(4-dimethylaminocarbonylthio-3-methoxycarbonylphenyl)thiazole]: 108 to 109 °C.
Next, `CCOc1ccc(-c2nc(-c3ccc(S)cc3C(=O)O)cs2)cc1OCC` [Example 355, 2-(3,4-diethoxyphenyl)-4-(4-mercapto-2-carboxyphenyl)-thiazole]: 283 to 285 °C; `CCOc1ccc(-c2nc(-c3cc(CCO)c(O)c(C(=O)OC)c3)cs2)cc1OCC` [Example 358, 2-(3,4-diethoxyphenyl)-4-[3-methoxycarbonyl-4-hydroxy-5-(2-hydroxyethyl)phenyl]-thiazole]: 113 to 114 °C.
Turning to `CCOc1ccc(-c2nc(-c3ccc(N)c(C(=O)O)c3)cs2)cc1OCC` [Example 359, 2-(3,4-diethoxyphenyl)-4-(3-carboxy-4-aminophenyl)thiazole], the melting point was in the range of 228 to 229 °C.
Next, `CCOc1ccc(-c2nc(-c3cc(C(=O)O)c(O)cc3O)cs2)cc1OCC` [Example 360, 2-(3,4-diethoxyphenyl)-4-(3-carboxy-4,6-dihydroxyphenyl)thiazole]: 233 to 234 °C; `CCOc1ccc(-c2nc(-c3cccc(C(=O)O)c3)cs2)cc1OCC` [Example 362, 2-(3,4-diethoxyphenyl)-4-(3-carboxyphenyl)thiazole]: 192 to 192.8 °C.
The same measure for `CCCc1cc(-c2csc(-c3ccc(OCC)c(OCC)c3)n2)cc(C(=O)O)c1O` [Example 363, 2-(3,4-diethoxyphenyl)-4-(3-carboxy-4-hydroxy-5-propylphenyl)thiazole]: 179 to 180 °C; for `CCOc1ccc(-c2nc(-c3ccc(OC(C)=O)c(C(=O)O)c3)cs2)cc1OCC` [Example 364, 2-(3,4-diethoxyphenyl)-4-(3-carboxy-4-acetyloxyphenyl)thiazole]: 178 to 179 °C.
Next, `CCOc1ccc(-c2nc(-c3cccc(CO)n3)cs2)cc1OCC` [Example 454, 2-(3,4-diethoxyphenyl)-4-(2-hydroxymethyl-6-pyridyl)thiazole]: 109 to 113 °C; `CCOc1ccc(-c2nc(-c3ccc(OS(=O)(=O)C(F)(F)F)c(C(=O)OC)c3)cs2)cc1OCC` [Example 457, 2-(3,4-diethoxyphenyl)-4-(3-methoxycarbonyl-4-trifluoromethanesulfonyloxyphenyl) thiazole]: 112 to 113 °C; `CCOc1ccc(-c2nc(Cn3cccc3C(C)=O)cs2)cc1OCC` [Example 459, 2-(3,4-diethoxyphenyl)-4-(2-acetyl-1-pyrrolyl)methylthiazole]: 123 to 124 °C.
Molecule `CCCCCCCCCOC(=O)c1cc(-c2csc(-c3ccc(OCC)c(OCC)c3)n2)ccc1O` [Example 461, 2-(3,4-diethoxyphenyl)-4-(3-nonyloxycarbonyl-4-hydroxyphenyl)thiazole] registered a melting point of 67 to 68 °C.
The same measure for `CCOc1ccc(-c2nc(-c3cc4c(c(C(=O)O)c3)OC(C)(C)C4)cs2)cc1OCC` [Example 465, 2-(3,4-diethoxyphenyl)-4-(2,2-dimethyl-7-carboxy-2,3-dihydrobenzofuran-5-yl)thiazole]: 106 to 107 °C; for `CCOC(=O)C=Cc1cc(-c2csc(-c3ccc(OCC)c(OCC)c3)n2)cc(C(=O)OCOC)c1OCOC` [Example 512, 2-(3,4-diethoxyphenyl)-4-[3-methoxymethoxycarbonyl-4-methoxymethoxy-5-(2-ethoxycarbonylvinyl)phenyl]thiazole]: 94 to 96 °C; for `CCOc1ccc(-c2nc(-c3cc(C=CC(=O)O)c(O)c(C(=O)O)c3)cs2)cc1OCC` [Example 514, 2-(3,4-diethoxyphenyl)-4-[3-carboxy-4-hydroxy-5-(2-carboxyvinyl)phenyl] thiazole]: 260 to 261 °C.
Next, `CCOc1ccc(-c2nc(-c3cc(C(=O)O)ccn3)cs2)cc1OCC` [Example 516, 2(3,4-diethoxyphenyl)-4-(4-carboxy-2-pyridyl)thiazole]: 236.2 to 237.2 °C.

The values are drawn from USRE37556E1, “Superoxide radical inhibitor” (Otsuka Pharmaceutical Co., Ltd., priority 1990, dated 2002).
